Assay results from patent US9701689B2, “Substituted pyridines and pyridazines as CCR10 receptor inhibitors” (KYOWA HAKKO KIRIN CO., LTD., priority 2012, dated 2017).

Molecular target: T1, human CCR10 (Homo sapiens, UniProt P46092)
T1 construct: expressed in transfected cells; host or cells: KJMGER8 cells (Namalwa cell-derived line), beta-estradiol-induced; hCCR10G16 cells
T1 sequence (P46092 1-362): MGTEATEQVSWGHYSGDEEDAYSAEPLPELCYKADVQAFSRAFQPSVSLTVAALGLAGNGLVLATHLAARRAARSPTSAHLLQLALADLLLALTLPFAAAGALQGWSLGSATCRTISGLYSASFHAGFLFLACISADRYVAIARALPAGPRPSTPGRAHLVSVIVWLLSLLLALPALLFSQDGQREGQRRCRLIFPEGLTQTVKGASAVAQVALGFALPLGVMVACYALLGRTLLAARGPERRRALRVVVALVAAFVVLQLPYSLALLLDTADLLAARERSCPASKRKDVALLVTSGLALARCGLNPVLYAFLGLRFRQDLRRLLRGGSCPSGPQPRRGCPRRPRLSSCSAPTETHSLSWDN
Assay: CCR10 antagonistic effect: calcium assay of human CCR10 (CTACK-induced increase of intracellular calcium in hCCR10G16 cells)
Format: cell-based
Conditions: at a concentration of not more than 1000 nmol/L; human CCR10-expressing hCCR10G16 cells, 300 nmol/L CTACK added; read-out: inhibition of increase in the calcium ion concentration
How it was run: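 Inhibition of CTACK-evoked calcium flux (max minus min Fluo-3 fluorescence over ~5 min, FDSS) was calculated against control in β-estradiol-induced human CCR10/Gα16 KJMGER8 cells, after 30 min compound preincubation at 37 °C; CTACK added from a 300 nmol/L solution.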

Row | SMILES | inhibition at up to 1 µM
1 | Cc1cc(F)ccc1Nc1c(C(=O)N2CCC(c3ccc(F)cc3)CC2)cnc(S(N)(=O)=NC(=O)c2ccccc2)c1Cl (stereo not drawn) [Compound 194, 3-chloro-4-(4-fluoro-2-methylphenylamino)-5-[4-(4-fluorophenyl)piperidine-1-carbonyl]-N′-benzoylpyridine-2-sulfonimidamide] | ≥ 50%
2 | Cc1cc(F)ccc1Nc1c(C(=O)N2CCC(C#N)(c3ccccc3)CC2)cnc(S(N)(=O)=O)c1Cl [Compound 195, 3-chloro-5-(4-cyano-4-phenylpiperidine-1-carbonyl)-4-(4-fluoro-2-methylphenylamino)pyridine-2-sulfonamide] | ≥ 50%
3 | Cc1cc(Cl)ccc1Nc1c(C(=O)N2CCC(c3ccc(F)cc3)CC2)cnc(S(N)(=O)=O)c1C [Compound 196, 4-(4-chloro-2-methylphenylamino)-5-[4-(4-fluorophenyl)piperidine-1-carbonyl]-3-methylpyridine-2-sulfonamide] | ≥ 50%
4 | Cc1c(S(N)(=O)=O)ncc(C(=O)N2CCC(c3ccc(F)cc3)CC2)c1Nc1cccc(Cl)c1 [Compound 197, 4-(3-chlorophenylamino)-5-[4-(4-fluorophenyl)piperidine-1-carbonyl]-3-methylpyridine-2-sulfonamide] | ≥ 50%
5 | Cc1cccc(Nc2c(C(=O)N3CCC(O)(c4ccc(F)cc4)CC3)cnc(S(N)(=O)=O)c2Cl)c1 [Compound 199, 3-chloro-5-[4-(4-fluorophenyl)-4-hydroxypiperidine-1-carbonyl]-4-(m-tolylamino)pyridine-2-sulfonamide] | ≥ 50%
6 | Cc1cc(F)ccc1Nc1c(C(=O)N2CCC(c3ccc(F)cc3)CC2)cnc(S(=N)(N)=O)c1Cl (stereo not drawn) [Compound 200, 3-chloro-4-(4-fluoro-2-methylphenylamino)-5-[4-(4-fluorophenyl)piperidine-1-carbonyl]pyridine-2-sulfonimidamide] | ≥ 50%
7 | COC(=O)C1(c2ccccc2)CCN(C(=O)c2cnc(S(N)(=O)=O)c(Cl)c2Nc2cccc(C)c2)CC1 [Compound 201, methyl 1-[5-chloro-6-sulfamoyl-4-(m-tolylamino)nicotinoyl]-4-phenylpiperidine-4-carboxylate] | ≥ 50%
8 | Cc1cccc(Nc2c(C(=O)N3CC=C(c4ccc(F)cc4)CC3)cnc(S(N)(=O)=O)c2Cl)c1 [Compound 202, 3-chloro-5-[4-(4-fluorophenyl)-1,2,3,6-tetrahydropyridine-1-carbonyl]-4-(m-tolylamino)pyridine-2-sulfonamide] | ≥ 50%
9 | Cc1cccc(Nc2c(C(=O)N3CCC(C(N)=O)(c4ccccc4)CC3)cnc(S(N)(=O)=O)c2Cl)c1 [Compound 203, 1-[5-chloro-6-sulfamoyl-4-(m-tolylamino)nicotinoyl]-4-phenylpiperidine-4-carboxamide] | ≥ 50%
10 | CCS(=O)(=O)c1ncc(C(=O)N2CCC(c3ccc(F)cc3)CC2)c(Nc2ccccc2C)c1Cl [Compound 204, [5-chloro-6-(ethylsulfonyl)-4-(o-tolylamino)pyridin-3-yl][4-(4-fluorophenyl)piperidin-1-yl]methanone] | ≥ 50%
11 | Cc1ccccc1Nc1c(C(=O)N2CCC(c3ccc(F)cc3)CC2)cnc(S(=O)(=O)c2ccccc2)c1Cl [Compound 205, [5-chloro-6-(phenylsulfonyl)-4-(o-tolylamino)pyridin-3-yl][4-(4-fluorophenyl)piperidin-1-yl]methanone] | ≥ 50%
12 | Cc1cccc(Nc2c(C(=O)N3CCN(c4ccccc4Cl)CC3)cnc(S(N)(=O)=O)c2Cl)c1 [Compound 206, 3-chloro-5-[4-(2-chlorophenyl)piperazine-1-carbonyl]-4-(m-tolylamino)pyridine-2-sulfonamide] | ≥ 50%
13 | Cc1c(S(N)(=O)=O)ncc(C(=O)N2CCC(c3ccc(F)cc3)CC2)c1NC1CCCCC1 [Compound 207, 4-(cyclohexylamino)-5-[4-(4-fluorophenyl)piperidine-1-carbonyl]-3-methylpyridine-2-sulfonamide] | ≥ 50%
14 | COC1(c2ccc(F)cc2)CCN(C(=O)c2cnc(S(N)(=O)=O)c(Cl)c2Nc2cccc(C)c2)CC1 [Compound 208, 3-chloro-5-[4-(4-fluorophenyl)-4-methoxypiperidine-1-carbonyl]-4-(m-tolylamino)pyridine-2-sulfonamide] | ≥ 50%
15 | Cc1cccc(Nc2c(C(=O)N3CCN(c4ccc(F)cc4)C(=O)C3)cnc(S(N)(=O)=O)c2Cl)c1 [Compound 209, 3-chloro-5-[4-(4-fluorophenyl)-3-oxopiperazine-1-carbonyl]-4-(m-tolylamino)pyridine-2-sulfonamide] | ≥ 50%
16 | Cc1cccc(Sc2c(C(=O)N3CCC(c4ccc(F)cc4)CC3)cnc(S(N)(=O)=O)c2Cl)c1 [Compound 210, 3-chloro-5-[4-(4-fluorophenyl)piperidine-1-carbonyl]-4-(m-tolylthio)pyridine-2-sulfonamide] | ≥ 50%
17 | NS(=O)(=O)c1ncc(C(=O)N2CCC(c3ccc(F)cc3)CC2)c(NC(=O)c2ccccc2)c1Cl [Compound 211, N-{3-chloro-5-[4-(4-fluorophenyl)piperidine-1-carbonyl]-2-sulfamoylpyridin-4-yl}benzamide] | ≥ 50%
18 | NS(=O)(=O)c1ncc(C(=O)N2CCC(c3ccc(F)cc3)CC2)c(Cc2ccccc2)c1Cl [Compound 212, 4-benzyl-3-chloro-5-[4-(4-fluorophenyl)piperidine-1-carbonyl]pyridine-2-sulfonamide] | ≥ 50%
19 | Cc1cccc(Nc2c(C(=O)N3CC4CN(c5ccc(F)cc5)CC4C3)cnc(S(N)(=O)=O)c2Cl)c1 (stereo not drawn) [Compound 213, 3-chloro-5-[5-(4-fluorophenyl)octahydropyrrolo[3,4-c]pyrrole-2-carbonyl]-4-(m-tolylamino)pyridine-2-sulfonamide] | ≥ 50%
20 | Cc1c(S(N)(=O)=O)ncc(C(=O)N2CCC(c3ccc(F)cc3)CC2)c1NCC1CCOCC1 [Compound 214, 5-[4-(4-fluorophenyl)piperidine-1-carbonyl]-3-methyl-4-[(tetrahydro-2H-pyran-4-yl)methylamino]pyridine-2-sulfonamide] | ≥ 50%
21 | Cc1c(S(=O)(=O)Nc2ccon2)ncc(C(=O)N2CCC(c3ccc(F)cc3)CC2)c1NC1CCCCC1 [Compound 215, 4-(cyclohexylamino)-5-[4-(4-fluorophenyl)piperidine-1-carbonyl]-N-(isoxazol-3-yl)-3-methylpyridine-2-sulfonamide] | ≥ 50%
22 | CC(=O)C1(c2ccc(F)cc2)CCN(C(=O)c2cnc(S(N)(=O)=O)c(Cl)c2Nc2cccc(C)c2)CC1 [Compound 216, 5-[4-acetyl-4-(4-fluorophenyl)piperidine-1-carbonyl]-3-chloro-4-(m-tolylamino)pyridine-2-sulfonamide] | ≥ 50%
23 | NS(=O)(=O)c1ncc(C(=O)N2CCC(c3ccc(F)cc3)CC2)c(N[C@H]2C[C@@H]3CC[C@H]2O3)c1Cl [Compound 217, 4-((1R,2S,4S)-7-oxabicyclo[2.2.1]heptan-2-ylamino)-3-chloro-5-[4-(4-fluorophenyl)piperidine-1-carbonyl]pyridine-2-sulfonamide] | ≥ 50%
24 | Cc1cccc(Nc2c(C(=O)N3CCC4(CC3)CNc3ccccc3C4)cnc(S(N)(=O)=O)c2Cl)c1 [Compound 218, 3-chloro-5-[2′,4′-dihydro-1′H-spiro[piperidine-4,3′-quinoline]-1-ylcarbonyl]-4-(m-tolylamino)pyridine-2-sulfonamide] | ≥ 50%
